Source: patent US6696495B2, “Treatment of disorders secondary to organic impairments” (Snowden Pharmaceuticals, LLC, priority 1998, dated 2004)
Like-named read-outs stand apart in the source and are kept apart here.

What was measured:
[1] = system: Sexual Function, ADD, and Rage Outbursts; experiment: Case history 3, Sibutramine Patient No. 100; format: in vivo, human; details: sibutramine 10 mg twice a day
[2] = system: Dementia, Alzheimer's-Type; experiment: Case history 24; format: in vivo, human
Experimental: 24. The Symptoms Due to Dementia, Alzheimer's-Type
person one was diagnosed with Dementia. The symptoms they suffered from included memory loss and severe confusion. They tried a variety of treatments to relieve their symptoms including choldine esterase inhibitors, antidepressants, Ritilin, and aterol. […] They were then tested off of sibutramine. […] They began to suffer from a lowered I.Q. and their memory deteriorated.

[3] = system: Chronic Psychosis and Tardive Dyskinesia; experiment: Case history 28; format: in vivo, human
Experimental: 28. Chronic Psychosis and Tardive Dyskinesia
They were committed to a Psychiatric Hospital multiple times and was treated with multiple neuroleptic medication from which they have developed Tardive Dyskinesia. They were administered 15 mg sibutramine a day which had immediate effects, in less then one hour the improvement was noticed by them and others. […] They continue to take sibutramine along with 15 mg of Zyprexa daily.

[4] = system: Sexual Function and ADD; experiment: Case history 4, Sibutramine Patient No. 109; format: in vivo, human
[5] = system: Reflex Sympathetic Dystrophy Syndrome (RSDS); experiment: Case history 22; format: in vivo, human; details: sibutramine 10 mg. b.i.d. Person
Source text: 22. Reflex Sympathetic Dystrophy Syndrome (RSDS)
A person injured their left ankle 14 months prior to their initial visit. The left lower leg then became red and then black, hot, swollen, and extremely painful. RSD was diagnosed and multiple treatments were unsuccessful. After nine months the skin gradually sloughed and the limb turned cold but remained painful, especially to touch. The patient also noted profuse swelling of the affected left leg, a tremor of the left hand, and many visual-spatial problems characteristic of right cerebral dysfunction. They were declared totally disabled. […] This enabled them to discontinue their other medication.

[6] = system: Reflex Sympathetic Dystrophy Syndrome (RSDS); Complex Regional Pain Syndrome (CRPS); experiment: Case history 27; format: in vivo, human
[7] = system: Retinitis Pigmentosa; experiment: Case history 13; format: in vivo, human
Source text: person one presented with a 40 year history of gradual loss of vision due to RP. For the past 10 years they had been almost completely blind except for well-lit large shapes visible to their right eye. They have been prone to falls with head injury and had developed a focal seizure disorder which had been also associated with “visions”, stammering, and confusion. Multiple treatments had been tried unsuccessfully by other physicians, and they were then referred to me.
One problem was that the effects faded after 4-6 hours and required multiple dosing. […] sleep was aided as well because of the relief from the frightening visual apparitions. The relief from stammering was also unexpected.

[8] = system: Institutionalization Syndrome; experiment: Case history 25; format: in vivo, human
Source text: 25. The Symptoms Due to Institutionalization Syndrome, Also Known As Concentration Camp Syndrome or Survivors Syndrome.
A person was diagnosed with Institutionalization Syndrome and had been in and out of hospitals for 25 years.

[9] = system: Sexual Gender Choice Change; experiment: Case history 7, Sibutramine Patient No. 99; format: in vivo, human; details: sibutramine 10 mg every morning; person
[10] = system: Cerebral Palsy; experiment: Case history 26; format: in vivo, human; details: sibutramine 15 mg once a day; person two
Source text: 26. The Symptoms Due to Cerebral Palsy
person two had suffered from Cerebral Palsy since birth. Their whole life they had little control of their right arm and hand, and they could not keep their arm straight and down by their side except for short periods of time and using the utmost concentration to do so. Most often they kept their arm in an upright position with their hand near or above their shoulder and their elbow bent. They had no practical use from the arm other than to hold something against their chest. Their hand was also rigid and kept in a loose fist configuration. Fine motor movements of the fingers were impossible for them. […] They had gained control of the right arm and their hand. They are able to hold their hand down by their side for longer periods of time and less concentration required to do so. For the first time in their life they were able to make controlled movements and raise their arm and hand above their head.

[11] = system: Sexual Obsessive-Compulsive Behavior, ADD and Executive Function; experiment: Case history 6, Sibutramine Patient No. 77; format: in vivo, human
[12] = system: Heroin Craving and Abuse; format: in vivo, human
Source text: 21. Relief of Heroin Craving and Abuse (Problem No. 12) Sibutramine Patient No. 165
A single person was introduced to heroin by snorting when they were particularly stressed with the anger and pain of losing a boyfriend. They had always had difficulty recovering from pain, anger and loss but the heroin rapidly made them feel “normal”. They quickly moved to the intravenous route and reached a maximum intake of 5 bags per day (approximately $100/day in cost) for the next 6 months when they were discovered to have charged large amounts on their charge cards. They were then hospitalized in a drug detoxification hospital for three weeks but soon relapsed after discharge. After their second round of treatment they were referred to the care of a psychiatrist (the inventor herein). The patient described constant, unrelenting cravings for heroin and expressed that it would be “next to impossible” to remain free of the drug for any length of time. […] Out of desperation, the dose was increased to 15 mg in the AM and within an hour they noted a marked change. […] They now felt the “normal” feeling that heroin had given them and no longer noted any anger, hurt or distress.
They gained 15 pounds the first 2 weeks on the 15 mg of sibutramine in the morning. This was partially relieved by adding a 5 mg dose of sibutramine in the afternoon. This effect on the heroin craving and hurt is therefore clearly separate from the FDA-approved anorexic effect of sibutramine. […] They are now working at two jobs to pay their back debts.

[13] = system: Non-Tourette's tics, obsessive-compulsive rituals, and attention deficit hyperactive disorder (ADHD)
[14] = system: Gulf War Syndrome (GWS); experiment: Case history 19; format: in vivo, human; details: 10 mg. b.i.d. of sibutramine; veteran

CC(C)CC(N(C)C)C1(c2ccc(Cl)cc2)CCC1.Cl (stereo not shown) [sibutramine, N,N-dimethyl-1-[1-(4-chlorophenyl)cyclobutyl]-3-methylbutylamine hydrochloride]
concentration and anger outbursts [1]: able to concentrate better and had fewer and less severe anger outbursts | sexual drive and interest ([1]; person): an increase in their sexual drive and interest | memory loss and severe confusion ([2]; sibutramine 15 mg once a day, person one): their symptoms quickly dissipated | symptoms off sibutramine ([2]; taken off sibutramine): their symptoms reappeared | emotion and paranoia ([3]; 15 mg sibutramine a day, with Zyprexa): emotional for the first time and diminishing their paranoia greatly | time to noticed improvement ([3]; 15 mg sibutramine a day, person): one hour | Tardive Dyskinesia ([3]; after the first week): his Tardive Dyskinesia improved | concentration and fatigue problems ([4]; sibutramine 5 mg three times daily with continuing valproic acid): no longer had the concentration and fatigue problems | sexual interest and ability ([4]; sibutramine 5 mg three times daily, person): immediately noted a new-found interest and ability to engage in sex | cognition and pain [5]: rapidly became cognitive and had pain relief | time to pain relief ([6]; 15 mg capsule of sibutramine, child): ≤ 45 min | toe and function ([6]; 15 mg once a day, within 2 weeks): their toe became normal, and normal function was regained | pain and symptoms after restart ([6]; back on 15 mg once a day): their pain level decreased significantly within one hour and their symptoms disappeared | foot pain ([6]; first 15 mg capsule): dramatically better, completely relieved of pain | symptoms off sibutramine ([6]; taken off for one day): all the previous symptoms reappeared | time after which effects faded ([7]; sibutramine 5 mgs.): 4 to 6 h | visual apparitions (“visions”) ([7]; sibutramine 5 mgs. t.i.d.): lost the “visions” which had upset them so | organization, alertness, stammering, vision ([7]; sibutramine 5 mgs. t.i.d. Person one): better organization and alertness, decreased stammering, but also better vision by visual testing | course since treatment began ([8]; four months): continued improvement of their symptoms | symptoms of Institutionalization Syndrome ([8]; sibutramine 15 mg once a day): relieved their symptoms within a few minutes | sexual interest [9]: an increased interest in sex generally, but for the first time this interest included females as well as males | symptoms due to Cerebral Palsy, control of right arm and hand [10]: their symptoms due to Cerebral Palsy were relieved | concentration, organization, sexual obsessive-compulsive problems ([11]; sibutramine 10 mg every morning, then 5 mg three times a day by mouth, person): could concentrate, organize, and no longer had the sexual obsessive-compulsive problems | duration of effects of each dose ([11]; sibutramine by mouth): about five | “nodding out” side effects ([12]; compared with heroin): none of the negative “nodding out” side effects | weight gain ([12]; first 2 weeks on 15 mg in the morning): 15 pounds | anger, hurt and narcotic craving ([12]; sibutramine 5 mg tid po, person): no relief from their anger and hurt nor from their narcotic craving | anger, hurt and narcotic craving ([12]; sibutramine 15 mg in the AM): a complete relief | duration of effect ([12]; sibutramine 15 mg in the AM): extended for the whole day | time to marked change ([12]; sibutramine 15 mg in the AM): an hour | side effects ([12]; sibutramine 15 mg in the morning): a dry mouth and a craving for food | tics and OCD symptoms ([13]; sibutramine 5 mg tid, child): stopped both the tics and the OCD symptoms, but only for a few hours | effect of missing a single dose ([13]; sibutramine 10 mg tid): the vocal and motor tics return immediately | sleep and appetite ([13]; sibutramine 10 mg tid): Sleep and appetite were not affected | tics and OCD symptoms ([13]; sibutramine 10 mg tid): free of symptoms throughout the day | concentration at school ([13]; sibutramine 10 mg tid, versus dextroamphetamine, methylphenidate, pemoline): better than with any of the analeptics | pain, cognitive problems, confusion [14]: rapidly repaired their pain, cognitive problems, and confusion
